According to patent US6087493A, “Porphyrin compounds as telomerase inhibitors” (Regents of the University of Texas System, priority 1998, dated 2000):
Like-named read-outs stand apart in the source and are kept apart here.

Legend:
[1] = in vitro; assay type: cell-based; conditions: human, hs578bst cells; HS578 Bst, Thy (n = 3 ± SEM); read-out: Cytotoxicity
Method: Cytotoxicity of the compounds to human breast cancer cells in vitro was assessed using a panel of cell lines representing estrogen receptor-positive (BT20, MCF-7m), and a pair of estrogen receptor-negative, transformed breast (11S578t) and normal breast (HS578Bst) cells.
Thy: tritiated […] assay (n = 3 ± SEM)

[2] = system: MCF7 cells; assay: Nuclear localization of TMPyP4 in MCF7 cells; assay type: cell-based, human
Method: MCF7 cells were seeded at 5×10^5 cells per flask and cultured in the presence of 0, 50, or 100 μM TMPyP4 for 7 days with one exchange of medium. The cells were harvested with trypsin-EDTA, washed with PBS and counted using a Coulter counter. The cells were then pelleted by centrifugation at 700 g and lysed in a hypotonic solution (0.1×PBS);the resulting lysate was sedimented at 700 g for 10 min. The supernatant was removed and the pellet was dissolved in 0.5 ml of 2% SDS. Absorbance of the supernatants and pellet was measured at 423 nm. TMPyP4 diluted in 2% SDS containing 1 mg/ml salmon sperm DNA was used for the standard curve.
Several reports indicate that porphyrins localize specifically in tumor tissue, although sites of subcellular localization may vary widely with porphyrin structure and net charge (De Paolis et al., 1985). […] To gain insight into the subcellular distribution of cationic porphyrins, the inventors have cultured MCF7 cells with 0, 50, or 100 μM TMPyP4 for 7 days.

[3] = system: sea urchin embryos
Method: Lytechinus pictus sea urchins were purchased from Marinus Inc. (Long Beach, Calif.) and maintained at 15° C. in refrigerated aquaria containing Instant Ocean synthetic sea water, following a described procedure [Vafa, 1996 #300]. For polyspermic fertilization, 0.01 vol freshly prepared stock sperm suspension (25 ml ASW containing 2 ml undiluted semen) was added to the eggs suspended for 10 min at 1% concentration in ASW adjusted to pH 9.0 with NH4 OH and stirred at 60 rpm with motor-driven Teflon paddles. Ten min after insemination, the fertilized eggs were allowed to settle, and the supernatant ASW containing sperm was aspirated and replaced with fresh ASW. The embryos were cultured at 18° C. Twenty min after fertilization TMPyP4 or TMPyP4.Pt^II (100 μM final concentration) was added from a concentrated stock in DMSO to 1% embryo suspensions. Equivalent amounts of DMSO (final 0.1%) were added to control egg suspensions. At measured times after insemination, the embryos were pelleted by centrifugation and resuspended in Carnoy's fixative (ethanol:acetic acid, 3:1) for at least 1 hr. After fixation the embryos were pelleted and resuspended successively in: (1) ethanol:acetic acid, 1:1 for 5-15 min: (2) 45% acetic acid for 5-15 min; (3) room temperature 1 N HCl for 1-2 min: (4) 60° C. 1 N HCl for 7-8 min; (5) room temperature 1 N HCl for 1-2 min; (6) Schiffs reagent for 90-120 min; and (7) 45% acetic acid before affixing the embryos to microscope slides. Embryo samples were placed on microscope slides, covered with coverslips, and frozen on a bed of dry ice. After at least 30 min, the coverslips were popped off using a razor blade and the slides were immediately plunged into Coplin jars containing 95% ethanol for 5-10 min. The slides were then transferred to Coplin jars containing 100% ethanol for 3-5 min. After removing the slides and allowing them to air dry, the embryos were mounted with one drop Permount (Fisher) under a coverglass.
The inventors examined whether treatment of the embryos with G-quadroplex interactive agents can cause observable chromosomal abnormalities. A time course of the embryo development was followed in the presence of 10 μM and 100 μM concentrations of TMPyP4 or TMPyP4.Pt^II.

[4] = system: MX-1 mammary carcinoma; conditions: for # CR's: n=20
Method: A MX-1 human breast tumor adjuvant model employed nude mice (Harlan Sprague Dawley, Inc.). The mice were implanted s.c. by trocar with fragments of MX-1 mammary carcinomas harvested from S.C. growing MX-1 tumors in nude mice hosts. When tumors were approximately 5 mm×5 mm in size (about 10 days after inoculation), the animals received cytoxan at 200 mg/kg. After tumors regressed (fifteen days after cytoxan administration), the animals were pair-matched into groups of mice, each of which was eartagged and followed individually throughout the experiment. The i.p. daily administration of TMPyP4 at 10 and 20 mg/kg five times weekly, began the day the animals were pairmatched (Day 1). TMPyP4 20 mg/kg was administered for 47 days. At the 10 mg/kg dose, TMPyP4 was administered continuously to the end of the study.
Mice were weighed twice weekly and tumor measurements were taken by calipers twice weekly, starting on Day 1. These tumor measurements were converted to mg tumor weight by a well-known formula, and from these calculated tumor weights, the termination date for each individual mouse was determined. Mice were euthanized when their tumors reached approximately 2 grams. Time to tumor recurrence and survival were monitored during the study.

[5] = system: MCF7 human breast carcinoma cells (telomerase activity); assay: Telomerase activity in intact MCF7 cells cultured with porphyrin; assay type: cell-based; conditions: 1, 10 and 100 μM, days 4, 8 and 15
Method: To determine the long-term effects of TMPyP4 on whole cells, MCF7 breast carcinoma cells were cultured in the continuous presence of 1, 10, and 100 μM TMPyP4. The porphyrin solution was freshly added to the medium from the concentrated stock at each passage of the cells (every 3-4 days). On days 4, 8, and 15, the cells were lysed and the telomerase activity was measured in the extracts.
Breast cancer cells MCF-7m, BT20, HS578t and normal HS578Bst cells were grown in culture in T75 flasks (10^6 cells/flask). […] The cells were harvested and freeze-thawed and the extracts used to measure telomerase activity using the Dynabeads method.

Q: With `C[n+]1ccc(-c2c3nc(c(-c4cc[n+](C)cc4)c4ccc([nH]4)c(-c4cc[n+](C)cc4)c4nc(c(-c5cc[n+](C)cc5)c5ccc2[nH]5)C=C4)C=C3)cc1` [TMPyP4, 5,10,15,20-tetra-(N-methyl-4-pyridyl)porphine] as the compound, how does the CC50 [1] read?
A: The CC50 was > 100 µM.

Q: What about the “cytoplasm as % of nuclear fraction concentration” value ([2]; 50 μM TMPyP4, 7 days) of the same compound?
A: Its value is 3.3%.

Q: And the “porphyrin concentration in the nuclear pellet” value ([2]; 50 μM TMPyP4, 7 days)?
A: Its value is 1.39 nmoles/10^6 cells.

Q: And the porphyrin in cytoplasm ([2]; 50 μM TMPyP4, 7 days)?
A: Its porphyrin in cytoplasm is 47.3 pmoles/10^6 cells.

Q: And the “cytoplasm as % of nuclear pellet concentration” value ([2]; 100 μM TMPyP4, 7 days)?
A: Its value is 5.5%.

Q: And the “porphyrin concentration in the nuclear fraction” value ([2]; 100 μM TMPyP4, 7 days)?
A: Its value is 7.81 nmoles/10^6 cells.

Q: What about the “porphyrin in cytoplasmic fraction” value ([2]; 100 μM TMPyP4, 7 days) of the same compound?
A: Its value is 434 pmoles/10^6 cells.

Q: What about the “calculated concentration in the nucleus” value ([2]; assuming nucleus 1/100 of cell volume) of the same compound?
A: The value was 1.4 to 78 mM.

Q: And the “calculated concentration in the cytoplasm” value ([2]; assuming volume of 10^6 cells 10-100 μl)?
A: The value was 0.47 to 434 µM.

Q: And the “differences from controls in embryos” value ([3]; 10 μM, 150 min after fertilization)?
A: Its value is “no definitive differences were seen”.

Q: What about the “condensed chromosome length / chromosomal effects” value ([3]; 100 μM) of the same compound?
A: Its value is “condensed chromosomes were longer than in the untreated controls”.

Q: What about the “proliferation and mitosis in embryos” value ([3]; in vivo) of the same compound?
A: Its value is “significantly decreases proliferative rates in the developing embryos and increases the percent of the cell in mitosis”.

Q: And the toxicity to embryos ([3]; in vivo)?
A: Its toxicity to embryos is “generally non-toxic to the embryos”.

Q: What about the “cell number and morphology of embryos” value ([3]; later time points) of the same compound?
A: The value was “fewer cells, many very misshapen and variable in size relative to the controls”.

Q: And the “first signs of ciliary motility” value ([3]; treated embryos)?
A: The value was 9 h.

Q: And the “# PS Remaining” value ([4]; 10 mg/kg)?
A: Its value is 0.

Q: What about the “# Partial Shrinkage” value ([4]; 10 mg/kg) of the same compound?
A: Its value is 2.

Q: And the “# Recur at 2 g” value ([4]; 10 mg/kg)?
A: Its value is 6.

Q: And the “# Remaining w/Tumors” value ([4]; 10 mg/kg)?
A: The value was 1.

Q: And the “# of Recur” value ([4]; 10 mg/kg)?
A: The value was 8.

Q: And the “# of Survivors” value ([4]; 10 mg/kg)?
A: Its value is 11.

Q: And the “# of Toxic Deaths” value ([4]; 10 mg/kg)?
A: Its value is 1.

Q: And the “% CR's” value ([4]; 10 mg/kg)?
A: Its value is 90%.

Q: What about the “Avg Day of Recur” value ([4]; 10 mg/kg) of the same compound?
A: The value was 25 days.

Q: And the MDS ([4]; 10 mg/kg)?
A: The MDS was 55.

Q: What about the “MDS-Partial Shrinkages” value ([4]; 10 mg/kg) of the same compound?
A: The value was 36.0.

Q: What about the “Mean Tumor Wt.” value ([4]; 10 mg/kg) of the same compound?
A: Its value is 11.52 mg.

Q: And the “# CR's” value ([4]; 10 mg/kg i.p. daily five times weekly)?
A: Its value is 18.

Q: What about the “# PS Remaining” value ([4]; 20 mg/kg) of the same compound?
A: The value was 0.

Q: What about the “# Partial Shrinkage” value ([4]; 20 mg/kg) of the same compound?
A: The value was 5.

Q: And the “# Recur at 2 g” value ([4]; 20 mg/kg)?
A: Its value is 8.

Q: What about the “# Remaining w/Tumors” value ([4]; 20 mg/kg) of the same compound?
A: The value was 0.

Q: What about the “# of Recur” value ([4]; 20 mg/kg) of the same compound?
A: The value was 9.

Q: And the “# of Survivors” value ([4]; 20 mg/kg)?
A: The value was 6.

Q: And the “# of Toxic Deaths” value ([4]; 20 mg/kg)?
A: Its value is 1.

Q: And the “% CR's” value ([4]; 20 mg/kg)?
A: The value was 75%.

Q: And the “Avg Day of Recur” value ([4]; 20 mg/kg)?
A: Its value is 19.33 days.

Q: What about the MDS ([4]; 20 mg/kg) of the same compound?
A: Its MDS is 67.4.

Q: And the “MDS-Partial Shrinkages” value ([4]; 20 mg/kg)?
A: The value was 44.6.

Q: And the “# CR's” value ([4]; 20 mg/kg i.p. daily five times weekly)?
A: Its value is 15.

Q: And the “telomerase activity in intact MCF7 cells” value [5]?
A: The value was “clear concentration-dependent loss of telomerase activity”.

Q: What about the “telomerase activity in intact MCF7 cells” value ([5]; listed as tetra(N-methyl-4-pyridyl)porphyrin) of the same compound?
A: The value was “telomerase activity is reduced relative to control cells”.
